Source: patent publication US20030207812A1, “Cd45 inhibitors” (priority 2002, published 2003)
Like-named read-outs stand apart in the source and are kept apart here. Where a SMILES comes first, the peptide text is derived from it. The star is where a group is joined. 3Phenanthroyl(9,10-dioxo) = O=C1C(=O)c2ccc(C(=O)*)cc2-c2ccccc21

How the values were obtained:
CD45 [1] = target: T1, CD45 (Homo sapiens, UniProt P08575); assay: Phosphatase assay using lck 10-mer as substrate; assay type: biochemical
T1 construct: incubating the cytosolic portion of CD45 with the compounds and p-nitrophenyl phosphate (pNPP); purchased BIOMOL (Plymouth Meeting, Pa.)
T1 sequence (P08575 599-1306 limits assumed): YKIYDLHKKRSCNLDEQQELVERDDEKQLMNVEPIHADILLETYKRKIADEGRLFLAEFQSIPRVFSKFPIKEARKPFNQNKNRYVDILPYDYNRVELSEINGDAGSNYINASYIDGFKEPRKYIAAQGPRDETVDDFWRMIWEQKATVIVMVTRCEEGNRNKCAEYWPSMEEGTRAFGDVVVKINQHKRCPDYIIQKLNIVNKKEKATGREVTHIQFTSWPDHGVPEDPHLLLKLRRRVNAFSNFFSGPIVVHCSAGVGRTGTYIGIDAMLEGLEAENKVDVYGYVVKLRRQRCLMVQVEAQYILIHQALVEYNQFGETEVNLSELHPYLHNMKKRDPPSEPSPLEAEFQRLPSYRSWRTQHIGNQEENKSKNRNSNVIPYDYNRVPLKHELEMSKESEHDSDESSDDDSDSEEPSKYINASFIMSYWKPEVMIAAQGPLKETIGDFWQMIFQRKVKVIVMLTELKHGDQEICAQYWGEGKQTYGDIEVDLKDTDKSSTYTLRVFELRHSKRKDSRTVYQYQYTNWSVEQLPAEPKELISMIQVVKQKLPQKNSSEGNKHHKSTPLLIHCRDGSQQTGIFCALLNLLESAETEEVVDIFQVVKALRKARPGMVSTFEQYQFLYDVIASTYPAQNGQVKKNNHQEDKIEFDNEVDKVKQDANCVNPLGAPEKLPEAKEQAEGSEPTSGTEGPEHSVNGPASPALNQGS
Description: Phosphatase assay using lck 10-mer as substrate:
Phosphatase activity was assayed in 96 well plates in a buffer containing final concentrations of 25 mM HEPES at pH 7.2, 5 mM DTT and 10 μg/mL BSA using the lck carboxy-terminal peptide TEGQpYQPQP as the substrate (Cho, H., Krishnaraj, R., Itoh, M., Kitas, E., Bannwarth, W., Saito, H., Walsh, C. T. 1993. Substrate specificities of catalytic fragments of protein tyrosine phosphatases (HPTPb, LAR, and CD45) toward the phosphotyrosylpeptide substrates and thiophosphotyrosylated peptides as inhibitors. Protein Science 2:977-984). Compounds were tested in a range from 30 to 0.01 μM in a final concentration of 5% DMSO. Enzyme was incubated with substrate with or without compound, at room temperature for 1.5 h. At the end of the incubation period, BIOMOL “Green Reagent” (BIOMOL, Plymouth Meeting, Pa.) was added to each well, the plates incubated at room temperature for 30 min and absorbance read at 620 nm.

in vitro = conditions: human
Description: (§1) Calcein-AM (Molecular Probes. Eugene, Oreg.) uptake, as a quantitative measure of cell viability, was used to evaluate the toxic effect of compounds on T cells.
(§2) The T-cell lymphoblasts were purified by separation over Lymphoprep, plated at 2×10^5/well in a round bottom 96-well plate containing RPMI with compound and incubated overnight at 37° C. in an incubator containing 5% CO2. The dilution scheme and culture media were the same as those used in the T-cell proliferation assay. After the incubation period, cells were washed with Dulbecco's phosphate-buffered saline (D-PBS) and incubated with 1 μM Calcein-AM for 30-45 mim in D-PBS as described in the technical sheet provided with The LIVE/DEAD Viability/Cytotoxicity Kit from Molecular Probes.

CD45 [2] = target: T1, CD45; assay: Phosphatase assay using pNPP as substrate; assay type: biochemical; conditions: read-out: pNPP IC50
Description: Phosphatase assay using pNPP as substrate:
CD45 enzyme was obtained from BIOMOL (Plymouth Meeting, Pa.). Phosphatase activity was assayed in a buffer containing final concentrations of 25 mM imidazole at pH 7.0, 50 mM NaCl, 2.5 mM ethylenediaminetetraacetic acid (“EDTA”), 5 mM dithiothreitol (“DTT”) and 10 μg/mL bovine serum albumin (“BSA”) using pNPP as a substrate.

T cells (PBMC) = assay: cells; assay type: cell-based, human; conditions: read-out: T cell prolif. IC50
Description: Cell isolation and T cell proliferation assay:
Whole blood was obtained from healthy human blood donors. Peripheral blood mononuclear cells (“PBMC”) were isolated using Lymphoprep density-gradient centrifugation (Nycomed Amersham, Oslo, Norway), washed, counted and resuspended at 2×10^6 cells/mL in RPMI 1640 medium containing glutamine, 0.1 mg/mL gentamycin and 10% heat inactivated human serum. PBMC were transferred to 96-well plates (2×10^5 cells/well) containing compound or vehicle control, with the final concentration of DMSO not to exceed 0.3%, and incubated for 1 hour before addition of the activating anti-CD3 antibody, OKT3 (30ng/mL). After 24 hours in culture, the cells were pulsed with [^3H]thymidine (1 μCi/well) overnight and harvested the next day onto 96-well Packard GF/C filter plates using a Packard Cell Harvester (Packard Instruments, Meriden, Conn.). The filter plate was dried, the bottom of the plate sealed, 25 μL of Microscint 20 scintillation fluid added to each well, the top of the plate sealed with TopSeal-A, and the plate counted on a Packard TopCount. The data from the TopCount is transferred into Excel 5 (Microsoft, Redmond, Wash.) and formatted for EC50 determination using Prism software (GraphPad Software, San Diego, Calif.).

[3] = Cytotoxicity assay (Calcein-AM uptake); conditions: human, PHA-expanded T-cell lymphoblasts from PBMC
Description: as §1, §2

[4] = CD45 phosphatase, lck carboxy-terminal peptide TEGQpYQPQP substrate, pH 7.2, read-out: Ick IC50
[5] = human PBMC, OKT3 30 ng/mL, [3H]thymidine
[6] = CD45 phosphatase, pNPP substrate, pH 7.0

Row | IC50 (CD45 [1]; [4]) | IC50 (CD45 [2]; [6]) | SMILES | IC50 (CD45 [1]) | CC50 (in vitro) | IC50 (CD45 [2]; pH 7) | IC50 (T cells (PBMC); [5]) | CC50 [3] | IC50 (T cells (PBMC); Homo sapiens)
1 |  |  | NC(=O)CC[C@H](NC(=O)[C@@H]1CCCN1C(=O)[C@H](CCC(N)=O)NC(=O)[C@H](CCC(=O)O)NC(=O)c1ccc2c(c1)-c1ccccc1C(=O)C2=O)C(=O)N1CCC[C@H]1C(=O)O [Example 24] ({3Phenanthroyl(9,10-dioxo)}-EQPQP-OH) | 2.4 µM | > 30 µM | 0.6 µM |  |  | 
2 |  |  | NC(=O)CC[C@H](NC(=O)[C@@H]1CCCN1C(=O)[C@H](CCC(N)=O)NC(=O)CNC(=O)c1ccc2c(c1)-c1ccccc1C(=O)C2=O)C(=O)N1CCC[C@H]1C(=O)O [Example 25] ({3Phenanthroyl(9,10-dioxo)}-GQPQP-OH) | 2.5 µM | > 30 µM | 1.2 µM |  |  | 
3 |  |  | NC(=O)CC[C@H](NC(=O)c1ccc2c(c1)-c1ccccc1C(=O)C2=O)C(=O)N[C@@H](CCC(N)=O)C(=O)N1CCC[C@H]1C(=O)N[C@@H](CCC(N)=O)C(=O)N1CCC[C@H]1C(=O)O [Example 26] ({3Phenanthroyl(9,10-dioxo)}-QQPQP-OH) | 2.3 µM | > 30 µM | 0.7 µM |  |  | 
4 |  |  | NC(=O)CC[C@H](NC(=O)[C@@H]1CCCN1C(=O)[C@H](CCC(=O)O)NC(=O)CNC(=O)c1ccc2c(c1)-c1ccccc1C(=O)C2=O)C(=O)N1CCC[C@H]1C(=O)O [Example 27] ({3Phenanthroyl(9,10-dioxo)}-GEPQP-OH) | 3.1 µM | > 30 µM | 0.7 µM |  |  | 
5 |  |  | NC(=O)CC[C@H](NC(=O)c1ccc2c(c1)-c1ccccc1C(=O)C2=O)C(=O)N[C@@H](CCC(=O)O)C(=O)N1CCC[C@H]1C(=O)N[C@@H](CCC(N)=O)C(=O)N1CCC[C@H]1C(=O)O [Example 28] ({3Phenanthroyl(9,10-dioxo)}-QEPQP-OH) | 2.2 µM | > 30 µM | 1.1 µM |  |  | 
6 |  |  | NC(=O)CC[C@H](NC(=O)CNC(=O)c1ccc2c(c1)-c1ccccc1C(=O)C2=O)C(=O)NCC(=O)N[C@@H](CCC(N)=O)C(=O)N1CCC[C@H]1C(=O)O [Example 29] ({3Phenanthroyl(9,10-dioxo)}-GQGQP-OH) | 2.5 µM | > 30 µM | 1.1 µM |  |  | 
7 |  |  | NC(=O)CC[C@H](NC(=O)c1ccc2c(c1)-c1ccccc1C(=O)C2=O)C(=O)N[C@@H](CCC(N)=O)C(=O)NCC(=O)N[C@@H](CCC(N)=O)C(=O)N1CCC[C@H]1C(=O)O [Example 30] ({3Phenanthroyl(9,10-dioxo)}-QQGQP-OH) | 1.7 µM | > 30 µM | 0.9 µM |  |  | 
8 | 2.9 µM | 0.8 µM | COC(=O)CCCC(=O)Nc1ccc2c(c1)-c1ccccc1C(=O)C2=O [Example 77, 4-(9,10-Dioxo-9,10-dihydro-phenanthren-3-ylcarbamoyl)-butyric Acid Methyl Ester] |  |  |  | 1.6 µM | 9 µM | 
9 | 4.9 µM | 5.9 µM | COC(=O)CCC(=O)Nc1ccc2c(c1)C(=O)C(=O)c1ccccc1-2 [Example 80, N-(9,10-Dioxo-9,10-dihydro-phenanthren-2-yl)-succinamic Acid Methyl Ester] |  |  |  | 0.7 µM | 6.5 µM | 
10 | 2.5 µM | 1.2 µM | CC(=O)Nc1ccc2c(c1)C(=O)C(=O)c1ccccc1-2 [Example 81, N-(9,10-Dioxo-9,10-dihydro-phenanthren-2-yl)-acetamide] |  |  |  | 0.2 µM | 0.9 µM | 
11 | 2.6 µM | 0.8 µM | Nc1ccc2c(c1)C(=O)C(=O)c1cccc([N+](=O)[O-])c1-2 [Example 84, 2-amino-5-nitro-phenanthrene-9,10-dione] |  |  |  | 0.7 µM | 4 µM | 
12 | 2.8 µM | 1.4 µM | Nc1ccc2c(c1)C(=O)C(=O)c1cccc(N)c1-2 [Example 85, 2,5-diamino-phenanthrene-9,10-dione] |  |  |  | 0.5 µM | 4 µM | 
13 | 2.9 µM | 0.8 µM | Nc1cccc2c1-c1ccccc1C(=O)C2=O [Example 89, 4-Amino-phenanthrene-9,10-dione] |  |  |  | 0.2 µM | 9 µM | 
14 | 4.7 µM | 0.4 µM | COC(=O)CCC(=O)Nc1cccc2c1C(=O)C(=O)c1ccccc1-2 [Example 91, N-(9,10-Dioxo-9,10-dihydro-phenanthren-1-yl)-succinamic Acid Methyl Ester] |  |  |  | 0.5 µM | 9 µM | 
15 | 5.4 µM | 2.4 µM | O=C1C(=O)c2cc([N+](=O)[O-])ccc2-c2ccccc21 [Example 92, 2-Nitro-phenanthrene-9,10-dione] |  |  |  | 1.6 µM | 10 µM | 
16 | 3.1 µM | 0.37 µM | O=C1C(=O)c2cc(Br)ccc2-c2ccccc21 [Example 96, 2-Bromo-phenanthrene-9,10-dione] |  |  |  | 0.6 µM | 5 µM | 
17 | 3.3 µM | 1 µM | O=C(O)c1ccc2c(c1)C(=O)C(=O)c1ccccc1-2 [Example 97, 9,10-Dioxo-9,10-dihydro-phenanthrene-2-carboxylic Acid] |  |  |  | > 30 µM | > 30 µM | 
18 | 4.9 µM | 0.5 µM | O=C1C(=O)c2ccc([N+](=O)[O-])cc2-c2ccccc21 [Example 99, 3-Nitro-phenanthrene-9,10-dione] |  |  |  | 0.2 µM | 2.8 µM | 
19 | 4.2 µM | 0.8 µM | CC(=O)c1ccc2c(c1)-c1ccccc1C(=O)C2=O [Example 100, 3-Acetyl-phenanthrene-9,10-dione] |  |  |  | 0.8 µM | 3.5 µM | 
20 | 2.9 µM | 0.8 µM | CC(=O)c1ccc2c(c1)C(=O)C(=O)c1ccccc1-2 [Example 101, 2-Acetyl-phenanthrene-9,10-dione] |  |  |  | 1.1 µM | 4.5 µM | 
21 | 4.9 µM | 0.6 µM | CC(C)(C)OC(=O)CNC(=O)c1ccc2c(c1)C(=O)C(=O)c1ccccc1-2 [Example 103, [(9,10-Dioxo-9,10-dihydro-phenanthrene-2-carbonyl)-amino]-acetic acid tert-butyl ester] |  |  |  | 0.4 µM | 10 µM | 
22 | 3.4 µM | 0.5 µM | O=C(O)CNC(=O)c1ccc2c(c1)-c1ccccc1C(=O)C2=O [Example 104, [(9,10-dioxo-9,10-dihydro-phenanthrene-3-carbonyl)-amino]-acetic acid] |  |  |  | 6.5 µM | > 30 µM | 
23 | 2.2 µM | 0.8 µM | O=C(O)CNC(=O)c1ccc2c(c1)C(=O)C(=O)c1ccccc1-2 [Example 105, [(9,10-Dioxo-9,10-dihydro-phenanthrene-2-carbonyl)-amino]-acetic acid] |  |  |  | 4.4 µM | > 30 µM | 

Row | SMILES | IC50 (CD45 [1]; [4]) | IC50 (CD45 [2]; [6]) | IC50 (CD45 [1]) | CC50 (in vitro) | IC50 (CD45 [2]; pH 7) | IC50 (T cells (PBMC); [5]) | CC50 [3] | IC50 (T cells (PBMC); Homo sapiens)
24 | O=C1C(=O)c2cc([N+](=O)[O-])ccc2-c2ccc([N+](=O)[O-])cc21 [Example 94, 2,7-Dinitro-phenanthrene-9,10-dione] | 5 µM | 4.1 µM |  |  |  |  | 8 µM | 0.5 µM
